The source of these data is PubChem BioAssay AID434987 (Southern Research Specialized Biocontainment Screening …, 2010).

SMILES strings stand for the structures. Calls of active or inactive are those of the source. No rule for the calls is given here.

The test system of the assay is M. tuberculosis H37Rv growth inhibition with meropenem. As to the kind of experiment: dose response, H37Rv, with and without meropenem (AID 434987).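 Also: growth over 7 days at 37 °C before Alamar Blue read on day 9.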
Where [1] appears, read: M. tuberculosis H37Rv growth inhibition, measured here: IC50 without meropenem.
Setting [2] is: M. tuberculosis H37Rv growth inhibition, measured here: IC90 without meropenem.
Where [3] appears, read: measured here: IC90 with meropenem.

Consider `Cn1c(=O)c2ccccc2n2c(CCl)nnc12`, for which the IC50 is 1.22 µM. For the same compound, the concentration for half-maximal inhibition (IC50) under setting [1] is 3.19 µM. Under setting [2], the concentration for an effect of 90% (IC90) is more than 100 µM. The IC90 under setting [3] amounted to 4.65 µM.
The matching figures for `Cc1ccc(C)c(SCC(=O)OCC(=O)N2CC(C)OC(C)C2)c1` (configuration not stated): 25.5 µM, more than 100 µM, more than 100 µM and more than 100 µM.
For the compound `CCOC(OCC)c1cn(Cc2ccc3c(c2)C(=O)c2ccccc2C3=O)nn1`, the IC50 is > 100 µM (inactive). Also, the IC50 under setting [1] was more than 100 µM. Under setting [2], this compound gave an IC90 of more than 100 µM. For the same compound, under setting [3], the IC90 was more than 100 µM.
For the compound `C(=N\n1cnnc1)/c1ccc(-c2ccccc2)cc1`, the IC50 is > 100 µM (inactive). Under setting [1], the IC50 is more than 100 µM. Moreover, the concentration for an effect of 90% (IC90) under setting [2] is more than 100 µM. The compound further had a concentration for an effect of 90% (IC90) under setting [3] of more than 100 µM.
On to `CC(=O)Nc1ccc(SCC(=O)c2cc(C)n(C)c2C)cc1`, for which the IC50 is 47 µM (inactive). The same compound came in with a concentration for half-maximal inhibition (IC50) under setting [1] of 57.3 µM. Under setting [2], this compound had a 90% effect concentration (IC90) of more than 100 µM. Under setting [3], the IC90 is 53.6 µM.
`O=C(NCc1ccc2c(c1)OCO2)Nc1ccc2ccccc2c1`: the IC50 was 78.3 µM (inactive). In addition, the IC50 under setting [1] is more than 100 µM. Further, the IC90 under setting [2] was more than 100 µM. In addition, under setting [3], the IC90 is more than 100 µM.
`CCc1ccc(NC(=S)Nc2ccc(S(=O)(=O)Nc3ncccn3)cc2)cc1`: the IC50 was 61.4 µM (inactive). For the same compound, the 50% inhibitory concentration (IC50) under setting [1] is more than 100 µM. This compound registered a concentration for an effect of 90% (IC90) under setting [2] of more than 100 µM. The same compound came in with a concentration for an effect of 90% (IC90) under setting [3] of more than 100 µM.
On to `COc1cc(CNc2ccc(NC(C)=O)cc2)ccc1OCc1ccccc1C`, for which the IC50 was > 100 µM (inactive). For the same compound, the IC50 under setting [1] is more than 100 µM. Under setting [2], this compound registered an IC90 of more than 100 µM. For the same compound, under setting [3], the 90% effect concentration (IC90) is more than 100 µM.
With `COc1ccc(C(=O)Nc2oc(-c3ccccc3)c(-c3ccccc3)c2C#N)cc1OC`, the IC50 is 25.2 µM (inactive). The compound also had an IC50 under setting [1] of 38.7 µM. For the same compound, the concentration for an effect of 90% (IC90) under setting [2] was more than 100 µM. This compound had a 90% effect concentration (IC90) under setting [3] of more than 100 µM.
As to `CCOC(=O)CNC(=O)c1cccnc1Oc1ccc(Cl)cc1`, the IC50 was 11.4 µM. Further, under setting [1], the IC50 was found to be 36.7 µM. Also, the 90% effect concentration (IC90) under setting [2] is more than 100 µM. Under setting [3], the 90% effect concentration (IC90) was more than 100 µM.
Regarding `CCCC(C)NC(=O)c1ccccc1SC` (configuration not stated), the IC50 was 36.4 µM (inactive). The compound further had an IC50 under setting [1] of 58.5 µM. Also, the IC90 under setting [2] was more than 100 µM. Besides, under setting [3], the 90% effect concentration (IC90) is more than 100 µM.
Take `CC/C(=N\NC(=O)c1ccc(-c2ccccc2)cc1)C12CC3CC(CC(C3)C1)C2`: the IC50 was 40.7 µM (inactive). The compound also displayed a 50% inhibitory concentration (IC50) under setting [1] of 41.1 µM. Further, under setting [2], the IC90 amounted to 47.9 µM. Under setting [3], this compound yielded a 90% effect concentration (IC90) of 43.7 µM.
As to `CCOC(=O)CNC(=O)/C(=C\c1ccc(F)cc1)NC(=O)c1ccccc1`, the IC50 was 19.1 µM. This compound returned an IC50 under setting [1] of 55.5 µM. Under setting [2], this compound displayed a concentration for an effect of 90% (IC90) of more than 100 µM. Under setting [3], this compound had an IC90 of 35.1 µM.
`COc1ccccc1N1CCN(CC(=O)Nc2cc(F)ccc2C)CC1`: the IC50 was 47 µM (inactive). The compound also came in with a 50% inhibitory concentration (IC50) under setting [1] of 58.6 µM. In addition, the IC90 under setting [2] was more than 100 µM. Further, the IC90 under setting [3] is 91 µM.
For the compound `COc1ccc(NC(=O)CCc2ccccc2)cc1NC(=O)c1ccco1`, the IC50 is > 100 µM (inactive). The same compound yielded an IC50 under setting [1] of more than 100 µM. Besides, the IC90 under setting [2] was more than 100 µM. In addition, the 90% effect concentration (IC90) under setting [3] was more than 100 µM.
Turning to `COc1ccc(/C(O)=C/C(=O)C(=O)NNC(=O)C(O)(c2ccccc2)c2ccccc2)cc1`, the IC50 was > 100 µM (inactive). The compound also had an IC50 under setting [1] of more than 100 µM. Besides, the IC90 under setting [2] was more than 100 µM. In addition, the 90% effect concentration (IC90) under setting [3] is more than 100 µM.
As for `CCOc1cccc(/C=N/Nc2nc(N3CCCC3)nc(N3CCCC3)n2)c1O`, the IC50 was 90.8 µM (inactive). The same compound came in with an IC50 under setting [1] of more than 100 µM. The compound further had an IC90 under setting [2] of more than 100 µM. Also, the 90% effect concentration (IC90) under setting [3] is more than 100 µM.
For the compound `CCOC(=O)c1c(NC(=S)NC(=O)c2ccc(Cn3cc(Cl)cn3)o2)sc2c1CCC(C)C2` (configuration not stated), the IC50 is > 100 µM (inactive). In addition, the IC50 under setting [1] is more than 100 µM. The compound also returned a 90% effect concentration (IC90) under setting [2] of more than 100 µM. The compound also registered a 90% effect concentration (IC90) under setting [3] of more than 100 µM.
For `COc1ccccc1NC(=O)Nc1nn(C)c2cccc(OC)c12`, the half-maximal inhibitory concentration (IC50) was 4.18 µM. This compound also showed an IC50 under setting [1] of 21.1 µM. The compound further gave a concentration for an effect of 90% (IC90) under setting [2] of more than 100 µM. The same compound had a concentration for an effect of 90% (IC90) under setting [3] of more than 100 µM.
Consider `Cc1noc(NS(=O)(=O)c2ccc(N/C=C\C(=O)c3ccc4c(c3)OCO4)cc2)c1C`, for which the IC50 is 34.2 µM. This compound registered an IC50 under setting [1] of 91.5 µM. Also, the concentration for an effect of 90% (IC90) under setting [2] is more than 100 µM. This compound also showed a concentration for an effect of 90% (IC90) under setting [3] of 86 µM.
In the case of `CCN(CC(=O)Nc1ccccc1OC)C(=O)c1cc(S(=O)(=O)N2CCCCCC2)ccc1OC`, the IC50 was > 100 µM (inactive). Under setting [1], this compound gave an IC50 of more than 100 µM. This compound also returned an IC90 under setting [2] of more than 100 µM. Under setting [3], this compound returned an IC90 of more than 100 µM.
On to `CCOC(=O)C1CSC(CC(=O)Nc2ccc(Cl)c(Cl)c2)C(=O)N1` (configuration not stated), for which the half-inhibitory concentration (IC50) was 10.8 µM. Under setting [1], this compound displayed an IC50 of 47.7 µM. The compound further displayed an IC90 under setting [2] of 54.3 µM. The concentration for an effect of 90% (IC90) under setting [3] turned out to be 35.4 µM.
Turning to `Cc1ccc(CC(=O)Nc2nc3ccccc3[nH]2)cc1C`, the half-maximal inhibitory concentration (IC50) is 6.31 µM. This compound also had a concentration for half-maximal inhibition (IC50) under setting [1] of more than 100 µM. Also, the IC90 under setting [2] was more than 100 µM. Besides, the 90% effect concentration (IC90) under setting [3] is more than 25 µM.
